One molecule from BindingDB's records for doi:10.7270/Q2J964TC (Burnham Center for Chemical Genomics, 2010) can be followed below.

The experiment addresses T1, Mannose-6-phosphate isomerase (Homo sapiens, UniProt P34949).
T1 sequence (P34949 whole entry): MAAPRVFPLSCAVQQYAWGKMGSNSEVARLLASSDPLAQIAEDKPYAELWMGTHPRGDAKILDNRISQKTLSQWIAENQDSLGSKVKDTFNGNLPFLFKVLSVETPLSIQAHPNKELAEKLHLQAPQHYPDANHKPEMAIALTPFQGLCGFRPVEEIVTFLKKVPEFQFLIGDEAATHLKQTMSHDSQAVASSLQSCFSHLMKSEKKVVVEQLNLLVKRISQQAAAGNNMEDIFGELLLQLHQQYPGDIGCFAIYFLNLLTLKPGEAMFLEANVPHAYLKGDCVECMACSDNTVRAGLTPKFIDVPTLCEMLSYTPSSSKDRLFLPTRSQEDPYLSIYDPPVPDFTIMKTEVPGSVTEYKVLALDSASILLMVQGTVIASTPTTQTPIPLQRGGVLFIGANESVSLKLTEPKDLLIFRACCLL
The experiment is described as follows: phosphomannose isomerase inhibition – biochemical, fluorescence intensity, confirmation (AID 1535).

The term IC50 denotes the point on the concentration scale where inhibition reaches its midpoint. In the case of `Oc1c(-c2ccccc2)sc2ccccc12` [2-phenyl-1-benzothiophen-3-one], the IC50 is above 100 µM.
